Experimental data published in US10894798B2, “Substituted dihydropyrrolopyrazole derivative” (UBE INDUSTRIES, LTD., priority 2015, dated 2021).

Experiments:
[1] = system: human large intestine cancer cell line HCT-116; assay: In vitro cell growth inhibitory activity against human large intestine cancer line by combined use with chemotherapeutic; format: cell-based; conditions: HCT-116, 3 days, IV-361 10 nM
Procedure: A human large intestine cancer cell line HCT-116 (obtained from DS Pharma Biomedical Co., Ltd.) was cultured in a McCoy's 5A medium (manufactured by Thermo Fisher Scientific, Inc.) containing 10% fetal bovine serum (FBS) (manufactured by Thermo Fisher Scientific, Inc.) and 1% penicillin/streptomycin/amphotericin B (manufactured by Thermo Fisher Scientific, Inc.) and inoculated at 0.5 to 2.0×10^3 cells/well to a 96-well plate. The cells were cultured overnight in a carbon dioxide incubator of 37° C. containing 5% carbon dioxide. The medium was replaced with a fresh medium on the next day, and then, a mixed solution of a DMSO solution of a test compound (IV-361, 5-FU or SN-38) with varying concentrations and a cell culture medium (final DMSO concentration: 0.2%) was added thereto. The concentration of the test compound was 10 nM, the concentration of 5-FU (manufactured by Wako Pure Chemical Industries, Ltd.) was 1000 nM, and the concentration of SN-38 (manufactured by Tocris Bioscience) was adjusted to 1 nM to carry out the test. For a control group, a mixed solution of DMSO and a cell culture medium (final DMSO concentration: 0.2%) was used instead of the DMSO solution of the test compound.
After the addition of the DMSO solution of the test compound, the cells were cultured for 3 days in a carbon dioxide incubator. Then, the absorbance (measurement wavelength: 565 nm) of the medium in each group was measured by using In Vitro Toxicology Assay Kit Sulforhodamine B based (manufactured by Sigma-Aldrich Co. LLC.).
The rate of inhibition of growth (%) was calculated according to the expression given below. Specifically, in the case where the difference between the average absorbance before culture (day 0) and the average absorbance after culture in the test compound-administered group is the same as the difference between the average absorbance before culture (day 0) and the average absorbance after culture in the control group, the rate of inhibition of cell growth is 0%. Rate of inhibition of growth=(1−((Average absorbance of the test compound-administered group after culture)−(Average absorbance of the test compound-administered group on day 0))/((Average absorbance of the control group after culture)−(Average absorbance of the control group on day 0)))×100

[2] = system: human large intestine cancer cell line (HCT-116) tumor; assay: In vivo tumor growth inhibition test for human large intestine cancer cell line by combined use with chemotherapeutic; conditions: for Rate of suppression of tumor volume: IV-361 25 mg/kg/day oral, alone
Procedure: The prepared cell suspension was subcutaneously injected at 0.1 mL/mouse to the right abdomens of female BALB nude mice (supplied by Charles River Laboratories Japan, Inc.).
Individuals whose tumor volume was within the range of 50 to 200 mm^3 were selected and grouped such that the tumor volume was almost equivalent. After the grouping, a test compound or only a solvent was administered in a repeated manner to the mice of each group as follows:
Single-agent administration group:
Control group: solvent (administered once a day)
5-FU, oxaliplatin, and irinotecan were intraperitoneally administered (5 mL/kg).
After a lapse of a predetermined period, the body weights of the mice of each group and the long diameter and short diameter of tumor were measured, and the tumor volume of the test compound-administered group with respect to the tumor volume of the control group was calculated as the rate of suppression of tumor volume (%).

[3] = system: mouse collagen-induced arthritis model; assay: Swelling suppression test using mouse collagen-induced arthritis model; format: in vivo; conditions: dose of 100 mg/kg, repeated oral administration, male DBA/1J mice
Procedure: A mouse collagen-induced arthritis model test was carried out by modifying the method of Mihara et al. (British Journal of Pharmacology, 154, 153 (2008)).
Male DBA/1J mice (supplied by Japan SLC, Inc.) were used as laboratory animals. An adjuvant prepared from a type II collagen solution (Collagen Research Center) and Adjuvant Complete Freund (manufactured by Difco Laboratories Ltd.) was intracutaneously administered twice to the bases of the tails of the mice under inhalation anesthesia with isoflurane (manufactured by Wako Pure Chemical Industries, Ltd.) for sensitization to prepare arthritis models.
Also, Adjuvant Complete Freund (manufactured by Difco Laboratories Ltd.) not containing type II collagen was administered by a similar method to obtain a control group. […]
During the test period, the swelling scoring of limbs (score 0: no disease, score 1: swelling and redness or weak swelling in the small joint of only one of the toes and the fingers, score 2: moderate swelling in the small joints of two or more of the toes and the fingers, score 3: strong swelling in the ankle or the forefoot wrist, score 4: overall strong swelling) was carried out to evaluate the drug efficacy of the test compound. When the total score of the solvent-administered group on the final day was defined as 100%, the rate of reduction in score (%) at each dose of the test compound was calculated.

`Cc1ccc(F)cc1NC(=O)N1Cc2c(NC(=O)C3([Si](C)(C)C)CCC3)n[nH]c2C1(C)C` [IV-361, N-(5-Fluoro-2-methylphenyl)-6,6-dimethyl-3-[1-(trimethylsilyl)cyclobutanecarboxamido]-4,6-dihydropyrrolo[3,4-c]pyrazole-5 (1H)-carboxamide] was tested, and the inhibition at 0.01 µM ([1]; Homo sapiens, 72 h, single-agent treatment, read-out: Rate of inhibition of growth (%)) was 11%, the “cancer cell growth inhibitory effect in combined use with chemotherapeutic (5-FU or SN-38)” value ([1]; 5-FU 1000 nM, SN-38 1 nM) was “synergistic cancer cell growth inhibitory effect” and the “rate of suppression of tumor volume in combined use with chemotherapeutic (5-FU, oxaliplatin or irinotecan)” value ([2]; 25 mg/kg IV-361 oral + 15 mg/kg 5-FU, 3 mg/kg oxaliplatin or 12.5 mg/kg irinotecan i.p., HCT-116 nude mice) was “excellent rate of suppression of tumor volume”. The “Rate of suppression of tumor volume” value ([2]; Table 52) was 46%, the “Rate of suppression of tumor volume” value ([2]; Table 53) was 46% and the “Rate of suppression of tumor volume” value ([2]; Table 54) was 20%. The “rate of inhibition (reduction in swelling score)” value [3] was at least 50%.
